According to US10722515B2, “Dual CLK/CDK1 inhibitors for cancer treatment” (SRI INTERNATIONAL, priority 2016, dated 2020):

What was measured:
CDK6/cyclinD3(h) = target: T1, CDK6/cyclinD3(h) (Homo sapiens, UniProt Q00534); assay: radiometric protein kinase assay, CDK6; assay type: biochemical; settings: enzyme inhibition, ATP 20 μM
T1 construct: purchased Eurofins, Dundee, Scotland
Procedure: (§1) Enzymatic biochemical activities were evaluated in radiometric protein kinase assays (Eurofins, Dundee, Scotland). Kinases are incubated with buffer, substrate and [γ-^33P]-ATP (specific activity approx. 500 cpm/pmol, concentration as required). The reaction is initiated by the addition of the MgATP mix. After incubation for 40 minutes at room temperature, the reaction is stopped by the addition of 3% phosphoric acid solution. 10 μL of the reaction is then spotted onto a P30 filtermat and washed three times for 5 minutes in 75 mM phosphoric acid and once in methanol prior to drying and scintillation counting.
(§2) All compounds are prepared to 50× final assay concentration in 100% DMSO. Positive control wells contain all components of the reaction with 2% DMSO. Blank wells contain all components of the reaction, with a reference inhibitor replacing the compound of interest. Each kinase is assigned a standard assay concentration of ATP within 20 μM of its apparent KM. Compounds were screened at 1 μM in duplicate or tested at 10 concentrations at half log dilution starting from 10 μM in singlicate. Dose response curves were fitted with four parameter logistic curve to obtain IC50 values. The average coefficient of variation (CV) of the conducted assay is 4.4%.

IKKβ(h) = target: T2, IKKβ(h) (Homo sapiens, UniProt O14920); assay: kinase profile, radiometric assay, IKKβ; assay type: biochemical
T2 construct: purchased Eurofins, Dundee, Scotland
T2 sequence (O14920 1-756): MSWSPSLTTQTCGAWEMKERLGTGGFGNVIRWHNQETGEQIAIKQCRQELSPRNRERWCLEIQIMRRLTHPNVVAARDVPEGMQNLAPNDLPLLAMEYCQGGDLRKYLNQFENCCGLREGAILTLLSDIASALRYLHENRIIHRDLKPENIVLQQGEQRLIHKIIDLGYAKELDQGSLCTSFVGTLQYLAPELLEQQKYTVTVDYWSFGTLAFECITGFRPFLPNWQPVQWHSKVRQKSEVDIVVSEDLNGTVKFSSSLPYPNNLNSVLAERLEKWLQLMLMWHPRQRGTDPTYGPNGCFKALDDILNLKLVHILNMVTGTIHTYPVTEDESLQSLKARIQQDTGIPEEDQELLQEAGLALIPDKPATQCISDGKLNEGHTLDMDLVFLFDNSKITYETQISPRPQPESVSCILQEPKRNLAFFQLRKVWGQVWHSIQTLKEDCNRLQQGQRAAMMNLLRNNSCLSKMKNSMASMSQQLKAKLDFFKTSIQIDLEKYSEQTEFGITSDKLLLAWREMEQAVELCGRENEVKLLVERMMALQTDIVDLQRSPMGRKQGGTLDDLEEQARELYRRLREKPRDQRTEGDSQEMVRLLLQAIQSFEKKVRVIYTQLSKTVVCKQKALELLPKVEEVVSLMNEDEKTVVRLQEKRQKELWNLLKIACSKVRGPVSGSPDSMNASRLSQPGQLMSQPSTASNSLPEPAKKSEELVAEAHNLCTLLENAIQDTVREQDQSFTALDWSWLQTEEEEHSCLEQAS
Procedure: as §1, §2

CLK3(h) = target: T3, CLK3(h) (Homo sapiens, UniProt P49761); assay: radiometric protein kinase assay, CLK3; assay type: biochemical; settings: enzyme inhibition, radiometric, ATP 90 μM; read-out: IC50 (nM) CLK3
T3 construct: purchased Eurofins, Dundee, Scotland
T3 sequence (P49761 whole entry): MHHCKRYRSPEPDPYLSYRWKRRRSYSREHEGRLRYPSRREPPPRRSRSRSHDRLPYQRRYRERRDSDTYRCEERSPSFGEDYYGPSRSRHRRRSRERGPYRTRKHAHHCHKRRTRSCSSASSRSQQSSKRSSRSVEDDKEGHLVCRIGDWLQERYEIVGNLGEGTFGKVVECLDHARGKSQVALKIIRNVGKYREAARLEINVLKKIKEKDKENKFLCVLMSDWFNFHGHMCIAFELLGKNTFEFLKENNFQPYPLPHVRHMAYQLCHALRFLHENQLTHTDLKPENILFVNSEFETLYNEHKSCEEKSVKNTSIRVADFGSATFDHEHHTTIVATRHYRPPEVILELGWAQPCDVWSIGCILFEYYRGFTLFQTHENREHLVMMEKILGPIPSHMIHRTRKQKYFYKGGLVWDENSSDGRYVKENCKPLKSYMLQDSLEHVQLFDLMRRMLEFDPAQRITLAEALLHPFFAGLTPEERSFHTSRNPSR
Procedure: as §1, §2

[1] = test system: MDM2 alternate splicing in Rh-18 cells; assay: Rh-18 MDM2 RT-PCR gel-based assay (orthogonal secondary assay); assay type: cell-based; settings: 10 μM, 8 h
Procedure: These hits were then subjected to a confirmatory assay in the Rh-18 MDM2 RT-PCR gel-based assay at a concentration of 10 μM.
Referring to FIG. 6, cells were exposed to 0.5% DMSO, 0.2 μM sudemycin D6 or […] CGP-74514A for 8 h. Total RNA was extracted by RNeasy Mini Kit (Qiagen). High capacity RNA-to-cDNA kit (Life technologies) was used to convert the RNA to cDNA.
Referring to FIG. 7, cells were exposed to 0.5% DMSO (lane 1), 1 μM sudemycin D6 (lane 2), 10 μM Compound 14 (lane 3), and 10 μM Compound 15 (lane 4) for 8 h. The total RNA was extracted by RNeasy Mini Kit (Qiagen). High capacity RNA-to-cDNA kit (Life technologies) was used to convert the RNA to cDNA. […] Ubiquitin transcripts (165 bp) in the same cells were used as a control (Fan et al. (2011) ACS Chem. Biol. 6: 582-9).

CDK4/cyclinD3(h) = target: T4, CDK4/cyclinD3(h) (Homo sapiens, UniProt P11802); assay: radiometric protein kinase assay, CDK4; assay type: biochemical; settings: enzyme inhibition, ATP 20 μM
T4 construct: purchased Eurofins, Dundee, Scotland
T4 sequence (P11802 whole entry): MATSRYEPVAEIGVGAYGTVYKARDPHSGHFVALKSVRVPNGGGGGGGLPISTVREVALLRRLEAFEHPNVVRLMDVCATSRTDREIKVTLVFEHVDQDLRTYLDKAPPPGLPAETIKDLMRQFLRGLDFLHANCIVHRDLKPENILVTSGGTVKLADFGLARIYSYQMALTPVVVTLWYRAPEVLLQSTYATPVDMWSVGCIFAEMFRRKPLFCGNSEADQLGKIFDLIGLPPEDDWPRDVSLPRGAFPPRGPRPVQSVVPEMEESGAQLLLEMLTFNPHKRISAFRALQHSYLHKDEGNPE
T4 sequence (P30281 whole entry partner): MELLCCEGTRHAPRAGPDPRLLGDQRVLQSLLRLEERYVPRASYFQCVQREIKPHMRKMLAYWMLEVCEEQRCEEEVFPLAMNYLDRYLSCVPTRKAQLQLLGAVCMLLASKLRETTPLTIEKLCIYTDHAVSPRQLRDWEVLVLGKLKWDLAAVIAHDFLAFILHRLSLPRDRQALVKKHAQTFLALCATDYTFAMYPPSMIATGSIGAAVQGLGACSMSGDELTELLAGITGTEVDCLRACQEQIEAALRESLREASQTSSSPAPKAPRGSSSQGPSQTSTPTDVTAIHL
Procedure: as §1, §2

[2] = test system: SK-MEL-2/Luc-MDM2 cells (MDM2-Luc exon-skipping reporter); assay: cell-based MDM2-Luc exon-skipping reporter assay; settings: for luciferase response (Luc fold) in the MDM2-Luc reporter assay: compared with less potent CLK inhibitors of the series; for MDM2/Luc: luciferase activation vs DMSO control, average of three experiments
CDK1/cyclinB(h) = target: T5, CDK1/cyclinB(h) (Homo sapiens, UniProt P06493); assay: radiometric protein kinase assay, CDK1; assay type: biochemical; settings: enzyme inhibition, ATP 45 μM
T5 construct: purchased Eurofins, Dundee, Scotland
T5 sequence (P06493 whole entry): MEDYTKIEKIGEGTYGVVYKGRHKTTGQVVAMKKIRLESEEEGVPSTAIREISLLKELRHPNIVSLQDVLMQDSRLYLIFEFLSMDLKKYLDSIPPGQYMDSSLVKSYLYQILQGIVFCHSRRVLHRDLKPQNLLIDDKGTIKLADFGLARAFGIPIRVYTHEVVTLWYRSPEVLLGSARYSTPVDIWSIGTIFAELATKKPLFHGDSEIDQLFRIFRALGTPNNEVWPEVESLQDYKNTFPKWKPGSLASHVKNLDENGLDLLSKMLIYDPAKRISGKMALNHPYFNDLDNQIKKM
T5 sequence (P14635 whole entry partner): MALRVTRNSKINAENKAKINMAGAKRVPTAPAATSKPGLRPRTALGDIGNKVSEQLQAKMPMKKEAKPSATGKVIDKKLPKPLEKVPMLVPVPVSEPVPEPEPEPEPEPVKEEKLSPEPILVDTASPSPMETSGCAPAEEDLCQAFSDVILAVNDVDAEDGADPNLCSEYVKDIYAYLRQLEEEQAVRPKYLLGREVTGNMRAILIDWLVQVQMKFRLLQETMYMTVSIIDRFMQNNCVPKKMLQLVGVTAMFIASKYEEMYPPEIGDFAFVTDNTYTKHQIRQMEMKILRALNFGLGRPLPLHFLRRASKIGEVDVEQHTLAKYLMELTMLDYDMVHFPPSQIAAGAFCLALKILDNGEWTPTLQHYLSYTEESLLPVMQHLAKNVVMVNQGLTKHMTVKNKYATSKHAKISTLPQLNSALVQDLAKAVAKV
Procedure: as §1, §2

22 oncogenic kinases = assay: kinase profiling against 22 oncogenic kinases; assay type: biochemical, human; settings: 1 μM in duplicate
Procedure: as §1, §2

T1 sequence (Q00534 whole entry): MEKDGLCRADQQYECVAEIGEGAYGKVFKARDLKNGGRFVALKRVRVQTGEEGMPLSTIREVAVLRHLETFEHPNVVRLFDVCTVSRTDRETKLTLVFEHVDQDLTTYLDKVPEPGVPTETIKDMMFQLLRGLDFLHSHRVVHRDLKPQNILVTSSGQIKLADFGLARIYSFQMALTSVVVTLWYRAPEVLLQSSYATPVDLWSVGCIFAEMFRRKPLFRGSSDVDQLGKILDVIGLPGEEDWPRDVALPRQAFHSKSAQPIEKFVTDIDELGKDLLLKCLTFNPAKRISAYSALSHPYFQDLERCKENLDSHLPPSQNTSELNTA
T1 sequence (P30281 whole entry partner): as the sequence (P30281 whole entry partner) above

Row | IC50 (CDK6/cyclinD3(h)) [nM] | IC50 (CLK3(h)) [nM] | IC50 (CDK4/cyclinD3(h)) [nM] | IC50 (CDK1/cyclinB(h)) [nM] | SMILES | inhibition at 1 µM (IKKβ(h)) [%] | activity in the Rh-18 MDM2 RT-PCR gel-based confirmatory assay [1] | luciferase response (Luc fold) in the MDM2-Luc reporter assay [2] | MDM2/Luc [2] | MDM2-Luc activity ([2]; result in words, no concentration stated) | inhibition against the entire 22 diverse kinase panel (22 oncogenic kinases) [%]
1 | > 1000 | > 1000 | > 1000 | 973 | CC(C)n1cnc2c(Nc3cc(N)cc(Cl)c3)nc(NC3CCCCC3N)nc21 (racemic) [Compound 14, Racemic N^6-Cis-(3-Amino-5-Chlorophenyl)-N^2-(2-Aminocyclohexyl)-9-Isopropyl-9H-Purine-2,6-Diamine] | -9 | confirmation | stronger luciferase response | Active | strong MDM2-Luc activity | 
2 |  |  |  |  | CC(C)n1cnc2c(Nc3cccc(Cl)c3)nc(N[C@H]3CCCC[C@@H]3N)nc21 [Compound 8, N^2-((1S,2S)-2-Aminocyclohexyl)-V-(3-Chlorophenyl)-9-Isopropyl-9H-Purine-2,6-Diamine] | -2 |  |  | Active |  | < 50
3 |  |  |  |  | CC(C)n1cnc2c(Nc3cccc(Cl)c3)nc(N[C@@H]3CCCC[C@@H]3N)nc21 [Compound 9, N^2-((1R,2S)-2-Aminocyclohexyl)-N^6-(3-Chlorophenyl)-9-Isopropyl-9H-Purine-2,6-Diamine] | -5 |  | stronger luciferase response | Active |  | 
